Measurements: patent US9662327B2 (AGIOS PHARMACEUTICALS, INC, priority 2011, dated 2017)

target: IDH1 R132H (Homo sapiens (Human), UniProt O75874, R132H); experiment: Assays for IDH1 R132H Inhibitors (NADPH/aKG, resazurin detection); type: biochemical; settings: IDH1 R132H enzyme, Table 2; read-out: IDHR132H Activity
How it was run: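 Substrate mix held 8 uM NADPH plus 2 mM aKG; buffer was 20 mM Tris pH 7.5 with 150 mM NaCl, 10 mM MgCl2, 0.03% BSA. After 50 min room-temperature reaction, NADPH remaining was detected with 30 μM resazurin mix over 5 min.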

IDH1 R132H, sequence (O75874 whole entry R132H): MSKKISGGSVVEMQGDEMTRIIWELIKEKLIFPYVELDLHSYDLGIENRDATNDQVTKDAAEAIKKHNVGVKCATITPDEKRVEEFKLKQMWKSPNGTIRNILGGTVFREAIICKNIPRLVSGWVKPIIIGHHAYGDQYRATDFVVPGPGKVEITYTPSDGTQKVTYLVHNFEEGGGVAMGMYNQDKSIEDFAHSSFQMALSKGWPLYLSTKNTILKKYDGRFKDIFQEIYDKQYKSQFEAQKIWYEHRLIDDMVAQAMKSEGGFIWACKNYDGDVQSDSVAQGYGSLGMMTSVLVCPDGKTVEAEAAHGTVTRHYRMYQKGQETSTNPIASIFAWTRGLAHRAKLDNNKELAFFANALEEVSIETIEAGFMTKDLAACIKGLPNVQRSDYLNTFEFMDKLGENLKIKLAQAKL

IC50 | SMILES
1000 to 10000 nM | C[C@@H]1CN(c2nc(C3CCCCC3)c3c(c2C#N)CCOC3)CCN1C(=O)Nc1ccccc1F [Compound 300, (R)-4-(5-cyano-8-cyclohexyl-3,4-dihydro-1H-pyrano[3,4-c]pyridin-6-yl)-N-(2-fluorophenyl)-2-methylpiperazine-1-carboxamide]
1000 to 10000 nM | Cc1ccc(NC(=O)N2CCN(c3nc(C4CC4)c4c(c3C#N)CC(C)(C)OC4)C[C@H]2C(C)C)cc1 [Compound 301, (R)-4-(5-cyano-8-cyclopropyl-3,3-dimethyl-3,4-dihydro-1H-pyrano[3,4-c]pyridin-6-yl)-2-isopropyl-N-p-tolylpiperazine-1-carboxamide]
1000 to 10000 nM | Cc1ccc(S(=O)(=O)N2CCN(c3nc(C4CC4)c4c(c3C#N)CC(C)(C)OC4)C[C@H]2C(C)C)cc1 [Compound 302, (R)-8-cyclopropyl-6-(3-isopropyl-4-tosylpiperazin-1-yl)-3,3-dimethyl-3,4-dihydro-1H-pyrano[3,4-c]pyridine-5-carbonitrile]
1000 to 10000 nM | CC(C)[C@@H]1CN(c2nc(C3CC3)c3c(c2C#N)CC(C)(C)OC3)CCN1C(=O)Nc1ccc(C#N)cc1 [Compound 303, (R)-4-(5-cyano-8-cyclopropyl-3,3-dimethyl-3,4-dihydro-1H-pyrano[3,4-c]pyridin-6-yl)-N-(4-cyanophenyl)-2-isopropylpiperazine-1-carboxamide]
< 500 nM | C=CCNC(=O)N1CCN(c2nc(C3CC3)c3c(c2C#N)CC(C)(C)OC3)C[C@H]1C(C)C [Compound 304, (R)—N-allyl-4-(5-cyano-8-cyclopropyl-3,3-dimethyl-3,4-dihydro-1H-pyrano[3,4-c]pyridin-6-yl)-2-isopropylpiperazine-1-carboxamide]
1000 to 10000 nM | CC(C)[C@@H]1CN(c2nc(C3CC3)c3c(c2C#N)CC(C)(C)OC3)CCN1C(=O)C1CCOCC1 [Compound 305]
1000 to 10000 nM | CC(C)[C@@H]1CN(c2nc(C3CC3)c3c(c2C#N)CC(C)(C)OC3)CCN1C(=O)OC(C)(C)C [Compound 306, (R)-tert-butyl 4-(5-cyano-8-cyclopropyl-3,3-dimethyl-3,4-dihydro-1H-pyrano[3,4-c]pyridin-6-yl)-2-isopropylpiperazine-1-carboxylate]
1000 to 10000 nM | C[C@@H]1CN(c2nc(C3CC3)c3c(c2C#N)CC(C)(C)OC3)[C@@H](C)CN1C(=O)c1ccoc1 [Compound 308, 8-cyclopropyl-6-((2S,5R)-4-(furan-3-carbonyl)-2,5-dimethylpiperazin-1-yl)-3,3-dimethyl-3,4-dihydro-1H-pyrano[3,4-c]pyridine-5-carbonitrile]
1000 to 10000 nM | C[C@@H]1CN(c2nc(C3CC3)c3c(c2C#N)CC(C)(C)OC3)[C@@H](C)CN1C(=O)Cc1cccs1 [Compound 309]
1000 to 10000 nM | COCCC(=O)N1C[C@H](C)N(c2nc(C3CC3)c3c(c2C#N)CC(C)(C)OC3)C[C@H]1C [Compound 310, 8-cyclopropyl-6-((2S,5R)-4-(3-methoxypropanoyl)-2,5-dimethylpiperazin-1-yl)-3,3-dimethyl-3,4-dihydro-1H-pyrano[3,4-c]pyridine-5-carbonitrile]
500 to 1000 nM | CCOC(=O)C1CN(c2nc(C(C)C)c3c(c2C#N)CC(C)(C)OC3)CCN1C(=O)CCOC (stereo not drawn) [Compound 311, ethyl 4-(5-cyano-8-isopropyl-3,3-dimethyl-3,4-dihydro-1H-pyrano[3,4-c]pyridin-6-yl)-1-(3-methoxypropanoyl)piperazine-2-carboxylate]
1000 to 10000 nM | COCCC(=O)N1CCN(c2nc(C3CCCCC3)c3c(c2C#N)CC(C)(C)OC3)C[C@H]1C [Compound 312, (R)-8-cyclohexyl-6-(4-(3-methoxypropanoyl)-3-methylpiperazin-1-yl)-3,3-dimethyl-3,4-dihydro-1H-pyrano[3,4-c]pyridine-5-carbonitrile]
1000 to 10000 nM | CCOC(=O)C1CN(c2nc(C3CCCCC3)c3c(c2C#N)CCOC3)CCN1C(=O)CCSC (stereo not drawn) [Compound 313, ethyl 4-(5-cyano-8-cyclohexyl-3,4-dihydro-1H-pyrano[3,4-c]pyridin-6-yl)-1-(3-(methylthio)-propanoyl)piperazine-2-carboxylate]
1000 to 10000 nM | CCOC(=O)C1CN(c2nc(C3CCCCC3)c3c(c2C#N)CCOC3)CCN1C(=O)c1ccco1 (stereo not drawn) [Compound 314, ethyl 4-(5-cyano-8-cyclohexyl-3,4-dihydro-1H-pyrano[3,4-c]pyridin-6-yl)-1-(furan-2-carbonyl) piperazine-2-carboxylate]
1000 to 10000 nM | CCOC(=O)C1CN(c2nc(C3CCCCC3)c3c(c2C#N)CCOC3)CCN1C(=O)OCCOC (stereo not drawn) [Compound 315, 2-ethyl-1-(2-methoxyethyl) 4-(5-cyano-8-cyclohexyl-3,4-dihydro-1H-pyrano[3,4-c]pyridin-6-yl)-piperazine-1,2-dicarboxylate]
1000 to 10000 nM | COc1ccc(NC(=O)N2CCN(c3nc(C4CC4)c4c(c3C#N)CC(C)(C)OC4)C[C@H]2C(C)C)cc1 [Compound 316, (R)-4-(5-cyano-8-cyclopropyl-3,3-dimethyl-3,4-dihydro-1H-pyrano[3,4-c]pyridin-6-yl)-2-isopropyl-N-(4-methoxyphenyl)piperazine-1-carboxamide]
< 500 nM | CC(C)[C@@H]1CN(c2nc(C3CC3)c3c(c2C#N)CC(C)(C)OC3)CCN1C(=O)CCl [Compound 317, (R)-6-(4-(2-chloroacetyl)-3-isopropylpiperazin-1-yl)-8-cyclopropyl-3,3-dimethyl-3,4-dihydro-1H-pyrano[3,4-c]pyridine-5-carbonitrile]
1000 to 10000 nM | CC1(C)Cc2c(C#N)c(N3CCN(C(=O)c4ccoc4)C(C)(C)C3)nc(C3CC3)c2CO1 [Compound 318, 8-cyclopropyl-6-(4-(furan-3-carbonyl)-3,3-dimethylpiperazin-1-yl)-3,3-dimethyl-3,4-dihydro-1H-pyrano[3,4-c]pyridine-5-carbonitrile]
1000 to 10000 nM | CC1(C)Cc2c(C#N)c(N3CCN(C(=O)c4ccco4)C(C)(C)C3)nc(C3CC3)c2CO1 [Compound 319]
1000 to 10000 nM | CSCCC(=O)N1CCN(c2nc(C3CC3)c3c(c2C#N)CC(C)(C)OC3)CC1(C)C [Compound 320, 8-cyclopropyl-6-(3,3-dimethyl-4-(3-(methylthio)propanoyl)piperazin-1-yl)-3,3-dimethyl-3,4-dihydro-1H-pyrano[3,4-c]pyridine-5-carbonitrile]
1000 to 10000 nM | Cc1occc1C(=O)N1CCN(c2nc(C3CC3)c3c(c2C#N)CC(C)(C)OC3)CC1(C)C [Compound 321]
1000 to 10000 nM | CC(=O)OCCCN1CCN(c2nc(C3CC3)c3c(c2C#N)CC(C)(C)OC3)C[C@H]1C(C)C [Compound 322]
1000 to 10000 nM | CC(C)[C@@H]1CN(c2nc(C3CC3)c3c(c2C#N)CC(C)(C)OC3)CCN1S(C)(=O)=O [Compound 323, (R)-8-cyclopropyl-6-(3-isopropyl-4-(methylsulfonyl)piperazin-1-yl)-3,3-dimethyl-3,4-dihydro-1H-pyrano[3,4-c]pyridine-5-carbonitrile]
1000 to 10000 nM | CC(C)[C@@H]1CN(c2nc(C3CC3)c3c(c2C#N)CC(C)(C)OC3)CCN1C(=O)Cn1cncn1 [Compound 324, (R)-6-(4-(2-(1H-1,2,4-triazol-1-yl)acetyl)-3-isopropylpiperazin-1-yl)-8-cyclopropyl-3,3-dimethyl-3,4-dihydro-1H-pyrano[3,4-c]pyridine-5-carbonitrile]
